Data on nine molecules can be found in patent US20250287930A1, “REGULATION OF IMMUNE RESPONSES THROUGH SELECTIVE NEURAL ACTIVATION” (The Trustees of Columbia University in the City of New York, priority 2024, published 2025).

Assay [1] has as its system LPS-activated neurons in the cNST. Nature of the assay: Chemogenetic activation of LPS-TRAPed cNST neurons, cytokines. Type of assay: in vivo, mice. On the procedure: (§1) All stereotaxic surgery procedures were carried out using aseptic technique. […] The viral constructs were injected into the cNST through a small craniotomy. The injection coordinates (based on Paxinos stereotaxic coordinates) for virus delivery in the cNST were as follows: caudal 7.5 mm, lateral ±0.3 mm, ventral 3.7-4 mm, all relative to Bregma. In chemogenetic experiments, TRAP2, Dbh-cre, Vglut2-cre and Vgat-cre mice received bilateral injections of 200 nl of AAV9-Syn-DIO-hM3Dq (Addgene, #44361-AAV9) and 300 nl of AAV9-Syn-DIO-hM4Di (Addgene, #44362-AAV9) in the cNST. Equivalent volumes of AAV9-Syn-DIO-mCherry (Addgene, #50459-AAV9) were injected as controls. For fiber photometry experiments, Vglut2-cre mice were unilaterally injected with 100 nl of AAV9-Syn-Flex-GCaMP6s (Addgene, #100845-AAV9) in the cNST, and an optical fiber (400 μm core, 0.48 NA, Doric Lenses) was implanted 50-100 μm above the GCaMP virus injection site.
(§2) The TRAP strategy was used in TRAP2 mice to gain genetic access to LPS-activated neurons in the cNST. […]
(§3) When using TRAP2 animals, at least 4 weeks elapsed between TRAPing and CNO treatment. […] Cytokines in the blood were measured using commercially available ELISA kits (R&D), following manufacturer's instructions. […]

Assay [2] concerns cNST neurons. Briefly: Fos induction in the cNST after intraperitoneal immune stimulation. Type of assay: in vivo, mice. The conditions noted are these: for Fos induction in the cNST: intraperitoneal injection, brains taken 2 h later. The method, then:
(§4) Mice housed in their home cages were injected intraperitoneally with lipopolysaccharide (LPS, 50 μg kg-1, Cell Signaling Technology, #14011), lipoteichoic acid (LTA, 1 mg kg-1 Sigma, #L2512), Flagellin (20 μg kg-1, Sigma Aldrich #SRP8029), Profilin (20 μg kg-1, Sigma Aldrich, #SRP8050), Zymosan (2.5 mg kg-1, Sigma Aldrich #Z4250), IL-10 (100 μg kg-1, BioLegend, #575804), a cocktail of IL-6 (100 μg kg-1, BioLegend #575706), IL-1β (100 μg kg-1, R&D, #401-ML) and TNF-α (100 μg kg-1, R&D, #410-MT), or saline control (0.9% NaCl), then 2 h later, perfused transcardially with PBS followed by 4% paraformaldehyde. Brains were dissected, fixed in 4% PFA overnight at 4° C., and then sliced coronally at 100 μm thickness. The brain sections were permeabilized and blocked with 10% normal donkey serum (EMD Millipore, #S30) in PBS containing 0.3% Triton X-100. Sections were incubated with an anti-Fos primary antibody (SYSY, #226004 guinea pig, diluted 1:5,000) at 4° C. overnight, followed by labeling with a secondary antibody (Alexa Fluor 647-conjugated donkey anti-guinea pig, Jackson ImmunoResearch, #706605148) at room temperature for 2 h. For double RNA in situ hybridization, fixed frozen nodose ganglia or brains were sectioned at 16 μm thickness and processed for mRNA detection using the RNAscope Fluorescent Multiplex Kit (Advanced Cell Diagnostics) following the manufacturer's instructions. The following RNAscope probes were used: Fos (#316921-C2), Dbh (#464621-C1), Trpa1 (#400211-C3) and Calca (#578771-C2), GFP (#400281-C1). Images were acquired using an Olympus FluoView 1000 confocal microscope. Quantification of fluorescent signals was carried out by manually counting the number of positive neurons.

The subject of the next assay is vagal sensory neurons. Briefly: Vagal calcium imaging of nodose ganglion (GCaMP6s in all vagal sensory neurons). Format: in vivo, mice. To be noted: for number of responding vagal sensory neurons: of 423 imaged vagal sensory neurons, cytokine intraperitoneal; for calcium activity in a subset of vagal sensory neurons: intraperitoneal cytokine, nodose ganglion. The method, then:
(§5) Calcium imaging of the nodose ganglion was conducted as described previously (Li, M. et al. Nature 610, 722-730, (2022); Tan, H. E. et al. Nature 580, 511-516, (2020)). For imaging in response to intragastric delivery of glucose (or linoleic acid), and IP injections of saline control and cytokines, a typical recording session consisted of: 1st: saline; 2nd: one of the three pro-inflammatory cytokines (TNF-α, IL-1β or IL-6); 3rd: anti-inflammatory cytokine (IL-10); 4th and 5th: two trials with glucose (or linoleic acid); each trial was 5 min. Cytokines were injected 1 min after the onset of the recording. Glucose (500 mM) and linoleic acid (10%) was delivered intragastrically. For all experiments 100 μg kg-1 of each cytokine was used. To deliver cytokines […], a segment of the intestine was placed in a custom-made perfusion chamber while still keeping it connected to the remainder of the gastrointestinal tract (no carbogenation). Each recording session included six interleaved trials, with 2 trials for each stimulus. Trials were 15 mins long, and consisted of a 180-s baseline (saline), a 180-s cytokine or control stimulus, and a 9-min washout (saline) period. The flow rates were maintained at around 600 μl min-1 throughout the experiment to minimize mechanical responses that may occur during the transition between trials. Cytokines were dissolved in saline at the concentration of 1 μg ml-1. During the entire perfusion session, all of the solutions were maintained at 37° C.
Imaging data was acquired exactly as previously described (Li, M. et al. Nature 610, 722-730, (2022); Tan, H. E. et al. Nature 580, 511-516, (2020)). Neuronal activity was analyzed for significant stimulus-evoked responses as described. The baseline distribution of deviations was first computed from the median for each cell throughout the entire experiment using periods prior to the stimulus delivery. Subsequently, this baseline was utilized to derive a modified z-score by subtracting the median and dividing by the median absolute deviation. Trials with an average modified z-score above 1.6 for the 180s (stimuli delivered via IP) or 480s (stimuli delivered via perfusion) following the initiation of stimulation were classified as responding trials (all responders had minimal peak amplitudes of 1% ΔF/F). Z-scores from responders were normalized across stimuli to generate heat maps of normalized fluorescence traces.

The next assay concerns DBH neurons in the cNST. Briefly: Fos induction in DBH neurons in the cNST by LPS and cytokine stimulation. Format: in vivo. The conditions noted are these: Dbh-cre mice, intraperitoneal injection. The method, then: as §4, with “For double RNA in situ hybridization, fixed frozen nodose ganglia or brains were sectioned at 16 μm thickness and processed for mRNA detection using the RNAscope Fluorescent Multiplex Kit (Advanced Cell Diagnostics) following the manufacturer's instructions. The following RNAscope probes were used: Fos (#316921-C2), Dbh (#464621-C1), Trpa1 (#400211-C3) and Calca (#578771-C2), GFP (#400281-C1). Images were acquired using an Olympus FluoView 1000 confocal microscope.” left out

Assay [3] relates to cNST neurons. Nature of the assay: Fiber photometry of LPS-evoked activity in the cNST (GCaMP6s, Vglut2-cre mice). Format: in vivo. The method, then:
as §1
Photometry experiments were conducted at least 14 days after the stereotaxic viral injection and fiber implantation (see the section on stereotaxic surgery for details). Prior to the experiments, mice were acclimated to the recording chamber for 1 h per day over 3 consecutive days. On the 4th and 5th day, mice were recorded for the bulk GCaMP responses to saline and LPS (0.5 mg kg-1), respectively, in a 5 h recording session. Saline and LPS were intraperitoneally injected 15 min after the onset of recording. Real-time population-level GCaMP fluorescence signals were detected, amplified and recorded using a RZ5P fiber photometry system with Synapse software (Tucker Davis Technologies). The collected data were downsampled, detrended and smoothed by custom MATLAB code. The calcium transients were identified as described previously (Barretto, R. P. et al. Nature 517, 373-376, (2015); Rousseeuw, P. J. C., C. J. Am. Stat. Assoc. 88, 1273-1283, (1993); Jin, H., Fishman, Z. H., Ye, M., Wang, L. & Zuker, C. S. Cell 184, 257-271 e216, (2021)) and the area under the curve (AUC) was calculated by integrating fluorescence signal under identified calcium transients. […]

In a further assay the test system is circulating cytokines. Nature of the assay: LPS-induced circulating cytokines in peripheral blood by ELISA. Format: in vivo, mice. On the procedure:
When using TRAP2 animals, at least 4 weeks elapsed between TRAPing and CNO treatment. Two doses (2 mg kg-1 and 1 mg kg-1) of CNO were given intraperitoneally at 12 h and 1 h prior to saline or LPS stimulation. Two hours after the intraperitoneal injection of saline or LPS (0.1 mg kg-1), blood samples were collected from either the submandibular or the tail vein. Cytokines in the blood were measured using commercially available ELISA kits (R&D), following manufacturer's instructions. Saline and LPS experiments were conducted on the same cohort of mice but at least 7 days apart.
To examine LPS-induced cytokine responses over time, wild-type (C56BL/6J) mice were injected IP with saline or LPS, and peripheral blood samples were collected at 0, 2 hours, 4 hours, and 6 hours post-stimulation.
On the technique in general: ELISA stands for enzyme-linked immunosorbent assay.

For assay [4], the system named is LPS-activated neurons in the cNST. Nature of the assay: Chemogenetic inhibition of LPS-TRAPed cNST neurons, LPS-evoked cytokines. Details: unit not given here. Type of assay: in vivo, mice. The conditions noted are these: LPS-treated but not silenced animals. The method, then: as §1, §2, §3
A further assay deals with TRPA1 vagal neurons. Nature of the assay: Calcium imaging of TRPA1 vagal neurons. Type of assay: in vivo, mice. On the procedure: as §5, with “Trials were 15 mins long, and consisted of a 180-s baseline (saline), a 180-s cytokine or control stimulus, and a 9-min washout (saline) period. The flow rates were maintained at around 600 μl min-1 throughout the experiment to minimize mechanical responses that may occur during the transition between trials. Cytokines were dissolved in saline at the concentration of 1 μg ml-1. During the entire perfusion session, all of the solutions were maintained at 37° C.” left out
Imaging data was acquired exactly as previously described (Li, M. et al. Nature 610, 722-730, (2022); Tan, H. E. et al. Nature 580, 511-516, (2020)). Neuronal activity was analyzed for significant stimulus-evoked responses as described. […] Z-scores from responders were normalized across stimuli to generate heat maps of normalized fluorescence traces.

As to `C[N+]1([O-])CCN(C2=Nc3cc(Cl)ccc3Nc3ccccc32)CC1` [CNO, clozapine N-oxide], in assay [1], the “anti-inflammatory cytokines (IL-10), change on activation” value is “very large increase” and the “pro-inflammatory cytokines, change on activation” value is recorded as “dramatic suppression”.

Flagellin: in the assay on cNST neurons [2], the “Fos induction in the cNST” value is reported as “robustly activated Fos”.

For the molecule IL-1β: pro-inflammatory cytokine, the “number of responding vagal sensory neurons” value in the assay with vagal sensory neurons is recorded as 8.

Turning to Profilin, in the assay on cNST neurons [2], the “Fos induction in the cNST” value is “robustly activated Fos”.

Take lipopolysaccharide [LPS]: the “Fos expression in the cNST of Myd88−/− mice” value in the assay on cNST neurons [2] (Myd88−/− mice, LPS intraperitoneally, 2 h) is listed as “largely absent”. Moreover, in the assay with cNST neurons [2], the “Fos induction in the cNST” value is on record as “robustly activated Fos”. Further, the “activation (Fos) of DBH neurons in the cNST” value in the assay with DBH neurons in the cNST is listed as “activate DBH neurons”. In the assay with cNST neurons [3] (LPS 0.5 mg kg-1), the “reduction of average cNST response after vagotomy” value is given as roughly 80%. In the assay on cNST neurons [3] (LPS 0.5 mg kg-1, after bilateral vagotomy), the “cNST GCaMP6s response, AUC (area under the curve)” value was determined as 10.6±6.1. In addition, the “cNST GCaMP6s response, AUC (area under the curve)” value in the assay on cNST neurons [3] (LPS 0.5 mg kg-1, intact vagus) stood at 52.6±7.2. Moreover, in the assay with circulating cytokines (IL-6, IL-1β, TNF-α, IL-10, 2 h after LPS), the “cytokine induction in Myd88−/− mice” value was “dramatically reduced”. Further, in the assay with circulating cytokines (control animals given LPS), the “TNFa in the peripheral blood” value was 200 pg/mL. Moreover, the “direct activation of vagal neurons” value with vagal sensory neurons (LPS 0.5 mg kg-1) is “not directly activated”. In assay [4], the IL-1β level is on record as 200 and the IL-10 level amounted to 750.

With lipoteichoic acid [LTA], the “Fos induction in the cNST” value in the assay with cNST neurons [2] is given as “robustly activated Fos”.

In the case of tumor necrosis factor [TNF-α], in the assay on vagal sensory neurons, the “calcium activity in a subset of vagal sensory neurons” value is reported as “triggered robust activity” and the “number of responding vagal sensory neurons” value is recorded as 13.

B1: interleukin-4 (protein, UniProt P05112 25-153, looked up)
Interleukin-4: HKCDITLQEIIKTLNSLTEQKTLCTELTVTDIFAASKNTTEKETFCRAATVLRQFYSHHEKDTRCLGATAQQFHRHKQLIRFLKRLDRNLWGLAGLNSCPVKEANQSTLENFLERLKTIMREKYSKCSS
notes: anti-inflammatory cytokine
For the molecule B1, the “calcium activity in a subset of vagal sensory neurons” value in the assay with vagal sensory neurons is “triggered robust activity”.

B2: interleukin-10 (protein, UniProt P22301 19-178, looked up)
Interleukin-10: SPGQGTQSENSCTHFPGNLPNMLRDLRDAFSRVKTFFQMKDQLDNLLLKESLLEDFKGYLGCQALSEMIQFYLEEVMPQAENQDPDIKAHVNSLGENLKTLRLRLRRCHRFLPCENKSKAVEQVKNAFNKLQEKGIYKAMSEFDIFINYIEAYMTMKIRN
notes: anti-inflammatory cytokine
Regarding B2, the “Fos induction in the cNST” value with cNST neurons [2] is reported as “induces significant Fos labelling”. For the same molecule, the “activation (Fos) of DBH neurons in the cNST” value in the assay with DBH neurons in the cNST is “activate DBH neurons”. For the same molecule, the “number of responding vagal sensory neurons” value with vagal sensory neurons is 11/423. Further, in the assay on TRPA1 vagal neurons (GCaMP6s imaging), the “activation of TRPA1-expressing vagal neurons” value was “activated”. Besides, in the assay with TRPA1 vagal neurons (imaged TRPA1 neurons, IP or perfusion), the “number of responding TRPA1 neurons” value is 27 of 189.
